Test results: paper PMC10463010 (RSC Advances, 2023)

Experiments:
[1] = Cytotoxic effect on RAW 264.7 using MTT assay; assay type: cell-based; conditions: mouse, RAW 264.7 cells
[2] = test system: NO production in RAW264.7 stimulated by LPS; assay: NO production in LPS-stimulated RAW 264.7; assay type: cell-based; conditions: Mus musculus, RAW264.7, read-out: % inhibition of NO production
[3] = target: acetylcholinesterase (AChE) (Homo sapiens, UniProt P22303); assay: Acetylcholinesterase inhibition assay; assay type: biochemical
Sequence of acetylcholinesterase (AChE) (P22303 32-614, species assumed): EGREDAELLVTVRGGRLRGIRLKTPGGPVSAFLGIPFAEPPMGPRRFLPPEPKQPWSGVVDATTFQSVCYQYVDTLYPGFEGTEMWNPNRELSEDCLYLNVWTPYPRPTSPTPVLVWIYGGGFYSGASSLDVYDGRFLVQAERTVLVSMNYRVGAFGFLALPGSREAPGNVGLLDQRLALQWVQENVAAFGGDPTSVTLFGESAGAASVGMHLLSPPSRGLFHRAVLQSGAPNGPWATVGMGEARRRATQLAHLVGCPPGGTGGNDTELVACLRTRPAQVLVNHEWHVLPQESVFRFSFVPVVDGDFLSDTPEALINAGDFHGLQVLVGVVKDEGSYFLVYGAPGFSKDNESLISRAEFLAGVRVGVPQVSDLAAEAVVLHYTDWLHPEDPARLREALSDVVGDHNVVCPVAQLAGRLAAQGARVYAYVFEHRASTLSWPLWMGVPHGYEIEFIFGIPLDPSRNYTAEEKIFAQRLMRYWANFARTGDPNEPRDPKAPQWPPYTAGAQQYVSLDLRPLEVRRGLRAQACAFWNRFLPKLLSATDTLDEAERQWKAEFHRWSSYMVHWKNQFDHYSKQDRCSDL

TNF = conditions: 20 μM, LPS stimulated RAW264.7; cited from earlier work
TNF-α = TNF-α level in LPS-induced RAW 264.7; assay type: cell-based; conditions: RAW 264.7, in comparison to LPS treated cells
IL-1β = IL-1β level in LPS-induced RAW 264.7; assay type: cell-based; conditions: RAW 264.7, in comparison to LPS treated cells
IL-6 = IL-6 level in LPS-induced RAW 264.7; assay type: cell-based
[4] = In vitro hydrolysis / chemical stability in buffers; assay type: physicochemical; conditions: 0.1 M HCl (simulated gastric conditions), pH 1.4
SK-N-SH Cells = conditions: Aβ-induced SK-N-SH cells, increased from 20%; cited from earlier work

`Cn1c(=O)c2c(ncn2CC(=O)OCc2cn(-c3cc(=O)oc4ccccc34)nn2)n(C)c1=O` [15c, (1-(2-Oxo-2H-chromen-4-yl)-1H-1,2,3-triazol-4-yl)methyl-2-(1,3-dimethyl-2,6-dioxo-1,2,3,6-tetrahydro-7H-purin-7-yl)acetate] gave a viability at 24 h, 50 µM [1] of 88 ± 0.8%, an inhibition at 25 µM [2] of 85 ± 0.88% and an IC50 [3] of 9.8 ± 0.7 µM.
For `Cn1c(=O)c2[nH]cnc2n(C)c1=O` [theophylline], the “Effect on TNF production” value (TNF) is given as “suppress TNF production”.
In the case of `COc1cc(/C=N/NC(=O)Cn2cnc3c2c(=O)n(C)c(=O)n3C)ccc1O` [18j, (E)-2-(1,3-Dimethyl-2,6-dioxo-1,2,3,6-tetrahydro-7H-purin-7-yl)-N′-(4-hydroxy-3-methoxybenzylidene)acetohydrazide], the viability at 24 h, 50 µM [1] is reported as 89 ± 1%, the inhibition at 25 µM [2] is reported as 92.2 ± 0.86% and the IC50 [3] is reported as 14.6 ± 0.5 µM.
`Cc1ccc(C(C)C)c(OC(=O)Cn2cc(COC(=O)Cn3cnc4c3c(=O)n(C)c(=O)n4C)nn2)c1` [15b, (1-(2-(2-Isopropyl-5-methylphenoxy)-2-oxoethyl)-1H-1,2,3-triazol-4-yl)methyl-2-(1,3-dimethyl-2,6-dioxo-1,2,3,6-tetrahydro-7H-purin-7-yl)acetate] gave a viability at 24 h, 50 µM [1] of 97 ± 0.6% and an inhibition at 25 µM [2] of 68.6 ± 0.92%.
For `COc1ccc(OC)c(/C=N/NC(=O)Cn2cnc3c2c(=O)n(C)c(=O)n3C)c1` [18c, E-N′-(2,5-Dimethoxybenzylidene)-2-(1,3-dimethyl-2,6-dioxo-1,2,3,6-tetrahydro-7H-purin-7-yl)acetohydrazide], the viability at 24 h, 50 µM [1] was 88 ± 0.8% and the inhibition at 25 µM [2] was 75 ± 0.88%.
Work on `Cn1c(=O)c2c(ncn2CC(=O)N/N=C2/C(=O)Nc3ccccc32)n(C)c1=O` [compound 19, (E)-2-(1,3-Dimethyl-2,6-dioxo-1,2,3,6-tetrahydro-7H-purin-7-yl)-N′-(2-oxoindolin-3-ylidene)acetohydrazide] yielded a viability at 24 h, 50 µM [1] of 89.5 ± 1.1%, an inhibition at 25 µM [2] of 90 ± 0.88% and an IC50 [3] of 3.3 ± 0.2 µM. The “Reduction of TNF-α” value (TNF-α; 1 μM) was 31.8%, the “Reduction of TNF-α” value (TNF-α; 10 μM) was 53% and the “Reduction of IL-1β” value (IL-1β; 1 μM) was 49.4%. For the same compound, the “Downregulation of IL-1β” value (IL-1β; 10 μM) was 66.7%, the “Decrease of IL-6 levels” value (IL-6; 1 μM, RAW 264.7, in comparison to cells induced by LPS) was 47.5% and the “Decrease of IL-6 levels” value (IL-6; 10 μM, RAW 264.7, in comparison to LPS treated cells) was 57.7%. It also gave a half-life at 75 μM [4] of 1.8 h.
In the case of `COc1ccc(/C=N/NC(=O)Cn2cnc3c2c(=O)n(C)c(=O)n3C)cc1` [18l, (E)-2-(1,3-Dimethyl-2,6-dioxo-1,2,3,6-tetrahydro-7H-purin-7-yl)-N′-(4-methoxybenzylidene)acetohydrazide], the viability at 24 h, 50 µM [1] is reported as 93 ± 1% and the inhibition at 25 µM [2] is reported as 85.4 ± 0.87%.
Compound `COc1cc(/C=N/NC(=O)Cn2cnc3c2c(=O)n(C)c(=O)n3C)cc(OC)c1OC` [18e, (E)-2-(1,3-Dimethyl-2,6-dioxo-1,2,3,6-tetrahydro-7H-purin-7-yl)-N′-(3,4,5-trimethoxybenzylidene)acetohydrazide] has a viability at 24 h, 50 µM [1] of 92 ± 1% and an inhibition at 25 µM [2] of 71.8 ± 0.9%.
`Cn1c(=O)c2c(ncn2CC(=O)N/N=C/c2ccccc2)n(C)c1=O` [18a, E-N′-Benzylidene-2-(1,3-dimethyl-2,6-dioxo-1,2,3,6-tetrahydro-7H-purin-7-yl)acetohydrazide] showed a viability at 24 h, 50 µM [1] of 94 ± 0.2% and an inhibition at 25 µM [2] of 65.4 ± 0.84%.
Work on `COc1ccc(/C=N/NC(=O)Cn2cnc3c2c(=O)n(C)c(=O)n3C)cc1O` [18i, (E)-2-(1,3-Dimethyl-2,6-dioxo-1,2,3,6-tetrahydro-7H-purin-7-yl)-N′-(3-hydroxy-4-methoxybenzylidene)acetohydrazide] yielded a viability at 24 h, 50 µM [1] of 105 ± 1.2% and an inhibition at 25 µM [2] of 63.2 ± 0.93%.
`COC(=O)[C@@H](N)CCCNC(N)=N[N+](=O)[O-]` [L-NAME, L-NG-nitro arginine methyl ester, reference compound] showed an inhibition at 250 µM [2] of 84.8 ± 0.9%.
Work on `Cn1c(=O)c2c(ncn2CC(=O)N/N=C/c2ccccc2O)n(C)c1=O` [18g, (E)-2-(1,3-Dimethyl-2,6-dioxo-1,2,3,6-tetrahydro-7H-purin-7-yl)-N′-(2-hydroxybenzylidene)acetohydrazide] yielded a viability at 24 h, 50 µM [1] of 92 ± 1% and an inhibition at 25 µM [2] of 66.4 ± 0.79%.
`COc1ccc(/C=N/NC(=O)Cn2cnc3c2c(=O)n(C)c(=O)n3C)cc1OC` [18d, E-N′-(3,4-Dimethoxybenzylidene)-2-(1,3-dimethyl-2,6-dioxo-1,2,3,6-tetrahydro-7H-purin-7-yl)acetohydrazide] gave a viability at 24 h, 50 µM [1] of 90 ± 1% and an inhibition at 25 µM [2] of 70.7 ± 0.87%.
In the case of `NC(=S)NN=C1C(=O)Nc2ccccc21` [isatin thiosemicarbazone], the Survival rate (SK-N-SH Cells) is given as “approximately 100%”.
In the case of `Cn1c(=O)c2c(ncn2CC(=O)O)n(C)c1=O` [compound 2, theophylline-7-acetic acid, reference compound], the viability at 24 h, 50 µM [1] is reported as 85 ± 1.7% and the inhibition at 25 µM [2] is reported as 58.7 ± 1.82%.
For `Cn1c(=O)c2c(ncn2CC(=O)N/N=C/c2ccc(O)cc2)n(C)c1=O` [18b, (E)-2-(1,3-Dimethyl-2,6-dioxo-1,2,3,6-tetrahydro-7H-purin-7-yl)-N′-(4-hydroxybenzylidene)acetohydrazide], the viability at 24 h, 50 µM [1] was 87 ± 0.8% and the inhibition at 25 µM [2] was 71.8 ± 0.9%.
`Cn1c(=O)c2c(ncn2CC(=O)N/N=C/c2ccc3c(c2)OCO3)n(C)c1=O` [18h, (E)-N′-(Benzo[d][1,3]dioxol-5-ylmethylene)-2-(1,3-dimethyl-2,6-dioxo-1,2,3,6-tetrahydro-7H-purin-7-yl)acetohydrazide] gave a viability at 24 h, 50 µM [1] of 93 ± 1% and an inhibition at 25 µM [2] of 96.6 ± 0.87%.
Compound `COc1cccc(/C=N/NC(=O)Cn2cnc3c2c(=O)n(C)c(=O)n3C)c1` [18f, (E)-2-(1,3-Dimethyl-2,6-dioxo-1,2,3,6-tetrahydro-7H-purin-7-yl)-N′-(3-methoxybenzylidene)acetohydrazide] has a viability at 24 h, 50 µM [1] of 91 ± 1% and an inhibition at 25 µM [2] of 63.2 ± 0.93%.
